Assay results: US20090023807A1, “Treatment of Cytokine Dysregulation by Using Sn-2 Gamma-Linolenoyl, Gamma-Diho-Molinolenoyl or Arachidonoyl Patty Acid Glycerol Monoesters” (BTG International Limited, priority 2005, published 2009)

Legend:
TGF-β1 = TGF-β1 production from spleen mononuclear cells of mice fed the monoglyceride by gavage (ELISA); type: in vivo, SJL mice; details: fed 50 μg; for TGF-β1 production from spleen PBMCs: seven days by gavage
Method: After seven days animals were killed and the brain, liver and spleen were removed—the liver and brain frozen at −70° C. and mononuclear cells were isolated from spleens by sieving and density centrifugation on Lymphoprep (Sigma Chemical Co) and cultured at 37° C. in 5% CO2 atmosphere in 5 ml culture tubesat a cell density of 1×10^6 cells/ml in RPMI 1640 medium in 5% foetal calf serum (FCS). Cells were cultured with and without 1 μg/ml or 25 μg/ml concanavalin A (Con A) for approximately 20 hours and the supernatants removed and stored at −70° C. until required. Mouse TGF-β1 was measured in supernatants using a commercially available ELISA (Promega, Madison Wis.).

[1] = Storage stability and rearrangement of the monoglyceride; type: physicochemical
Text: This exemplifies its potential for inclusion in air excluding formats such as capsules or e.g. collapsible bag containers which allow egress of oil without entry of air. A high purity process for its synthesis has also been published in Yang et al, Journal of the Chinese Institute of Chemical Engineers, 34, 617-623 (2003). These processes lend themselves to synthesis of n-3 and n-6 sn-2 monoglycerides by replacing the arachdonoyl or γ-linolenoyl source with the desired acyl group containing molecule.
Boric acid (2.81) g, 0.045 mol, 4 equivalents) was added to a freshly prepared solution of 1,3-O-benzylidene glycerol 2-octa-6Z,9Z,12Z-trienoate (5.0 g, 0.011 mol, 1 equivalent) in trimethyl borate (28 ml, 26.0 g, 0.25 mol, 22 equivalents) under N2. The mixture was stirred and heated in a sealed Teflon bomb at 90° C. for 15 minutes. The resulting cool solution was concentrated in vacuo and the residue heated at 90° C. under vacuum for 5 minutes. […] This process was repeated on the same scale twice more and the combined residues were dissolved in ether (150 ml) and washed with water (2×50 ml). The ether extract (not dried as MgSO4 promotes rearrangement) was concentrated in vacuo, ethanol added to the residue and the solution re-evaporated with ethanol (2×) to remove water. The residual tan oil (15.0 g) was purified by column chromatography on solica gel-boric acid (10:1) (10 g). Elution with DCM and then DCM-methanol (9:1) gave the product as a yellow oil (11.7 g, 73%) HPLC purity 93.4%. This material was stored in a freezer at −20° C. under N2.

[2] = Precipitation of the solubilised sn-2 monoglyceride; type: physicochemical; details: acid pH
[3] = Tolerability of gavage feeding; type: in vivo, SJL mice; details: higher doses (of 50, 125 and 250 μl), seven days
TNF-α = details: cited from earlier work
CREAE = CREAE feeding study; type: in vivo
Text: γ-Linolenic acid (18:3 n-6, or GLA) is known to be rapidly converted to longer-chain omega-6 polyunsaturated fatty acids dihomo-γ-linolenic acid and arachidonic acid in vivo (Phylactos et al 1994, Harbige et al 1995, 2000). Therefore to determine how to increase the level of membrane long chain omega-6 fatty acids in MS the inventors have reviewed their results obtained with several GLA-containing oils:-both fungal (from Mucor javanicus) and plant (Borago officianalis), Evening primrose Oenothera spp. or Blackcurrant Ribes spp) as well as a synthetic tri-GLA oil as GLA delivery systems in an in vivo experimental animal model of MS known as chronic relapsing experimental autoimmune encephalomyelitis (CREAE). […] Importantly blackcurrant seed oil has a low sn-2 GLA with most of the GLA in the sn-1 and sn-3 positions (Lawson and Hughes 1988). […] This would also be consistent with the sn-2 GLA being important i.e. the outer pair sn-1 and sn-3 GLA being enzymatically removed in vivo and probably undergoing oxidation leaving the sn-2 GLA only. This selective hydrolysis arises from the known ability of specific lipases to remove the sn-1 and sn-3 fatty acids from triacylgycerol molecules but an apparent protection of the sn-2 position in vivo (Lawson and Hughes 1988, Kyle 1990).

Row | Deterioration on storage ([1]; freezer at −20° C. under N2, 21 days) | Rearrangement to the 1-γ-Linolenoyl glycerol isomer ([1]; when heated or treated with acids or bases) | Deterioration on storage ([1]; yellow oil, −20° C. under nitrogen, several weeks at least) | Precipitation [2] | Compound | Change % of TGF-β1 production versus control (TGF-β1; Con A 0 μg/ml) [%] | Change % of TGF-β1 production versus control (TGF-β1; Con A 1 μg/ml) [%] | Change % of TGF-β1 production versus control (TGF-β1; Con A 25 μg/ml) [%] | TGF-β1 production from spleen PBMCs (TGF-β1; stimulated, Con A 1 μg/ml) [pg/mL] | TGF-β1 production from spleen PBMCs (TGF-β1; stimulated, Con A 25 μg/ml) [pg/mL] | TGF-β1 production from spleen PBMCs (TGF-β1; unstimulated, Con A 0 μg/ml) [pg/mL] | Regurgitation after gavage [3] | Activity in reducing TNF-α (TNF-α) | Protective effects in CREAE (CREAE)
1 | Little if any deterioration | can undergo rearrangement | without deterioration | tendency to precipitate | CCCCC/C=C\C/C=C\C/C=C\CCCCC(=O)OC(CO)CO [Example 1b, glycerol 2-octa-6Z,9Z,12Z-trienoate] | 80 | 79 | 42 | 409 | 480 | 377 | prone to regurgitation | inactive | –
2 | – | – | – | – | CCCCC/C=C\C/C=C\C/C=C\CCCCC(=O)OCC(COC(=O)CCCC/C=C\C/C=C\C/C=C\CCCCC)OC(=O)CCCC/C=C\C/C=C\C/C=C\CCCCC [TG-GLA] | – | – | – | – | – | – | – | – | protective effects similar to that of the borage oil
